From ChEMBL document CHEMBL4732144, “Discovery of a true bivalent dopamine D receptor agonist” (Eur J Med Chem, 2021)
Active and inactive are the calls of the source. The calls are words filed in the database; no cut-off is given here.

Experiments:
[1] = molecular target: T1, D(2) dopamine receptor (Homo sapiens, UniProt P14416); experiment: Displacement of [3H]raclopride from human D2R isoform 2 stably expressed in HEK293 cell membranes at 1 uM measured after 1 hr by liquid scintillation counting method; conditions: Membrane, filed as agonist
T1 sequence (P14416 whole entry, canonical isoform): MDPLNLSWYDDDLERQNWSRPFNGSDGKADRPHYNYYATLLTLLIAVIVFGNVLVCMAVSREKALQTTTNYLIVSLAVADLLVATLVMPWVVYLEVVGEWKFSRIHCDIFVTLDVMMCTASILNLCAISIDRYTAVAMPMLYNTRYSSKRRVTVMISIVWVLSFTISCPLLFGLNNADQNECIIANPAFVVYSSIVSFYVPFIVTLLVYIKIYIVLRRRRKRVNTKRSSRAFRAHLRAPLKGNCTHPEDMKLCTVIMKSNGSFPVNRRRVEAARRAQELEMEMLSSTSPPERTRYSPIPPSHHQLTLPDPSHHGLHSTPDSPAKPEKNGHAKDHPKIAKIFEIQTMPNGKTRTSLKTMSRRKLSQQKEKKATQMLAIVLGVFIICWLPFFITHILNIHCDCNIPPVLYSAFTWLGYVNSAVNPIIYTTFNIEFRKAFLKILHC

[2] = molecular target: T1, D(2) dopamine receptor; experiment: Displacement of [3H]raclopride from human D2R isoform 2 stably expressed in HEK293 cell membranes measured after 1 hr by liquid scintillation counting method relative to IndBipAlk Ki; conditions: Membrane
[3] = molecular target: T1, D(2) dopamine receptor; experiment: Displacement of [3H]raclopride from human D2R isoform 2 stably expressed in HEK293 cell membranes measured after 1 hr by liquid scintillation counting method; parameters: species or system Membrane
[4] = molecular target: T1, D(2) dopamine receptor; experiment: Agonist activity at human D2R isoform 2 stably expressed in HEK293 cells assessed as inhibition of forskolin-induced increase of cAMP accumulation preincubated for 10 mins followed by forskolin addition by Glosensor cAMP reagent based luminescence assay relative to IndBipAlk EC50; assay type: functional, cell-based
[5] = molecular target: T1, D(2) dopamine receptor; experiment: Agonist activity at human D2R isoform 2 stably expressed in HEK293 cells assessed as inhibition of forskolin-induced increase of cAMP accumulation preincubated for 10 mins followed by forskolin addition by Glosensor cAMP reagent based luminescence assay; assay type: functional, cell-based
[6] = molecular target: T1, D(2) dopamine receptor; experiment: Agonist activity at human D2R isoform 2 stably expressed in HEK293 cells assessed as inhibition of forskolin-induced increase of cAMP accumulation preincubated for 10 mins followed by forskolin addition by Glosensor cAMP reagent based luminescence assay relative to IndAlk EC50; assay type: functional, cell-based
[7] = molecular target: T1, D(2) dopamine receptor; experiment: Displacement of [3H]raclopride from human D2R isoform 2 stably expressed in HEK293 cell membranes measured after 1 hr by liquid scintillation counting method relative to IndAlk Ki; conditions: Membrane

Row | inhibition [1] | Ratio Ki [2] | Ki [3] | Ratio EC50 [4] | EC50 [5] | Ratio EC50 [6] | Ratio Ki [7] | SMILES
1 | Active | 3.9 | 250 nM | 0.6 | 542 nM | – | – | CCCN(CCCCNC(=O)c1ccc(-c2ccc(OCc3cn(CCOCCOCCOCCOCCn4cc(COc5ccc(-c6ccc(C(=O)NCCCCN(CCC)C7Cc8ccccc8C7)cc6)cc5)nn4)nn3)cc2)cc1)C1Cc2ccccc2C1
2 | – | – | 970 nM | – | 321 nM | – | – | C#CCOc1ccc(-c2ccc(C(=O)NCCCCN(CCC)C3Cc4ccccc4C3)cc2)cc1
3 | Active | – | 73 nM | – | 7.2 nM | 0.5 | 2.6 | CCCN(CCCCc1cn(CCOCCOCCOCCn2cc(CCCCN(CCC)C3Cc4ccccc4C3)nn2)nn1)C1Cc2ccccc2C1
4 | Active | – | 48 nM | – | 3.2 nM | 1.1 | 3.9 | CCCN(CCCCc1cn(CCOCCOCCOCCOCCOCCn2cc(CCCCN(CCC)C3Cc4ccccc4C3)nn2)nn1)C1Cc2ccccc2C1
5 | Active | 3.6 | 270 nM | 1.1 | 292 nM | – | – | CCCN(CCCCNC(=O)c1ccc(-c2ccc(OCc3cn(CCOCCOCCOCCn4cc(COc5ccc(-c6ccc(C(=O)NCCCCN(CCC)C7Cc8ccccc8C7)cc6)cc5)nn4)nn3)cc2)cc1)C1Cc2ccccc2C1
6 | > 80% | 16.4 | 59 nM | 4.9 | 65 nM | – | – | CCCN(CCCCNC(=O)c1ccc(-c2ccc(OCc3cn(CCOCCOCCOCCOCCOCCn4cc(COc5ccc(-c6ccc(C(=O)NCCCCN(CCC)C7Cc8ccccc8C7)cc6)cc5)nn4)nn3)cc2)cc1)C1Cc2ccccc2C1
7 | Active | – | 66 nM | – | 9.4 nM | 0.4 | 2.9 | CCCN(CCCCc1cn(CCOCCOCCOCCOCCn2cc(CCCCN(CCC)C3Cc4ccccc4C3)nn2)nn1)C1Cc2ccccc2C1

Row | SMILES | inhibition [1] | Ratio Ki [2] | Ki [3] | Ratio EC50 [4] | EC50 [5] | Ratio EC50 [6] | Ratio Ki [7]
8 | C#CCCCCN(CCC)C1Cc2ccccc2C1 | – | – | 189 nM | – | 3.4 nM | – | –
